Data on 15 compounds can be found in patent US12286435B2, “Compound having benzo seven-membered ring structure, preparation method therefor, and use thereof” (BIONNA (BEIJING) MEDICAL TECHNOLOGY CO., LTD., priority 2019, dated 2025).

The subject of assay [1] is leukemia MV4-11 cell line. The assay is described as follows: Cell viability (CCK-8), leukemia MV4-11. The format is cell-based. To be noted: Homo sapiens, 96 h; MV4-11 cells, 4 days, CCK-8, 50% inhibition of cell growth. How it is done:
(§1) 3. Determination of cell viability of the compound
(§2) The sample to be tested was dissolved with 100% dimethyl sulfoxide to prepare a 20 mM stock solution of the compound, which was diluted with 100% dimethyl sulfoxide to the highest compound concentration required for the experiment (2.5 mM).
(§3) First, 145 uL of a complete cell culture medium was added to wells B1-G1 of a 96-well flat-bottomed tansparent cell culture plate, and 100 uL of the complete medium was added to wells B2-G12, respectively. Then, 5 uL of the 2.5 mM solution of the compound was added to wells B1-D1 and E1-G1 respectively, and then diluted gradiently by 3-folds to B12-D12 and E12-G12 in sequence. Finally, 50 uL of the solution of the cells to be tested was added to each well, with about 3000-5000 cells per well, and a total volume of 150 uL per well.
(§4) In the experiment, in addition to the tested compound, two other control groups were set up: 1) a control group adding the cells and the complete medium, but without adding the compound; 2) a control group adding the complete medium only, without adding the cells and the compound. The 96-well plate was placed in a 37° C. cell culture incubator containing 5% carbon dioxide for 4 days, added with 15 uL of a CCK-8 reagent per well, and then incubated at 37° C. for 2-4 hours. The 96-well plate was read on a TECAN microplate reader, and the absorbance value at 450 nm wavelength was taken.
(§5) The effect of different concentrations of the compound on cell viability was calculated by the following equation: [absorption value of the experimental group−absorption value of pure cell culture medium without the cells or the compound]/[absorption value of the control group with the tumor cells but no testing compound−absorption value of pure cell culture medium without the cell or the compound]×100%.
(§6) The above data were precessed by software, and the IC50 value was the concentration of the compound corresponding to the 50% inhibition rate of cell growth.
(§7) Based on the above test method of the compound on cell viability, a variety of […] cancer cell lines were tested, using multiple myeloma MM.1S, breast cancer MDA-MB-231 and leukemia MV4-11 cell lines as exemples. Using this test method, the IC50 values of partial compounds in the examples of the present invention measured in multiple myeloma MM.1S, breast cancer MDA-MB-231 cell lines and leukemia MV4-11 cell lines were shown in Table 2.

The target of assay [2] is BRD4 BD2 protein (Homo sapiens (Human), UniProt O60885). The assay is described as follows: Fluorescence polarization binding affinity (Ki) with BRD4 BD2 protein. Further details: BRD4 BD2 Ki: reference not given here. To be noted: fluorescence polarization; Ki calculated from IC50.
Assay [3] deals with multiple myeloma MM.1S cell line. The assay is described as follows: Cell viability (CCK-8), multiple myeloma MM.1S. The format is cell-based. To be noted: Homo sapiens, MM1.S, 96 h, MM.1S cells, 4 days, CCK-8, 50% inhibition of cell growth. The procedure, abridged: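 Cells (about 3000-5000 per well) exposed to 3-fold serial dilutions of compound for 4 days at 37° C, 5% CO2. CCK-8 added 2-4 h, absorbance at 450 nm, viability normalised to untreated cells after medium-only blank subtraction; IC50 is concentration giving 50% growth inhibition.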

Assay [4] concerns the target BRD4 BD1 protein (Homo sapiens (Human), UniProt O60885). The assay is described as follows: Fluorescence polarization binding affinity (Ki) with BRD4 BD1 protein. To be noted: fluorescence polarization; Ki calculated from IC50.
Assay [5] concerns breast cancer MDA-MB-231 cell line. The assay is described as follows: Cell viability (CCK-8), breast cancer MDA-MB-231. The format is cell-based. To be noted: Homo sapiens, 96 h; MDA-MB-231 cells, 4 days, CCK-8, 50% inhibition of cell growth. How it is done: as §1, §2, §3, §4, §5, §6, §7

Where “and” joins values, the source holds several entries; their conditions need not be identical. Equal entries are not always repeated.

The IC50 is the concentration at which inhibition is half-maximal. As usually defined, the Ki is a dissociation constant, usually derived from enzyme kinetics or from competition with a known ligand. Regarding `Cc1nnn2c1-c1ccc(C3=CCN(C4CCCCC4)CC3)cc1C(Nc1cc(Cl)ccc1F)CC2` (stereo not drawn) [BH187, N-(5-chloro-2-fluorophenyl)-9-(1-cyclohexyl-1,2,3,6-tetrahydropyridin-4-yl)-1-methyl-6,7-dihydro-5H-benzo[c][1,2,3]triazolo[1,5-a]azepin-7-amine 2,2,2-trifluoroacetate], the IC50 in assay [1] was determined as 106 nM; in assay [3] it was 1300 nM. Further, the figures for the inhibition constant (Ki) in assay [2] and in assay [4] were 28.8 nM and 1720 nM, respectively.

Take `Cc1nnn2c1-c1ccc(-c3cn(C)nn3)cc1C(Nc1ccc(Cl)cc1)CC2` (stereo not drawn) [RB48, N-(4-chlorophenyl)-1-methyl-9-(1-methyl-1H-1,2,3-triazol-4-yl)-6,7-dihydro-5H-benzo[c][1,2,3]triazolo[1,5-a]azepin-7-amine]: the concentration for half-maximal inhibition (IC50) turned out to be 65 nM in assay [5] and 2.5 nM in assay [3]. The Ki in assay [2] is 16.5 nM; in assay [4], 45.1 nM.

Take `Cc1nnn2c1-c1ccc(C3=CCN(C4CCCCC4)CC3)cc1C(Nc1ccc(F)c(Cl)c1)CC2` (stereo not drawn) [LD76, N-(3-chloro-4-fluorophenyl)-9-(1-cyclohexyl-1,2,3,6-tetrahydropyridin-4-yl)-1-methyl-6,7-dihydro-5H-benzo[c][1,2,3]triazolo[1,5-a]azepin-7-amine 2,2,2-trifluoroacetate]: the half-inhibitory concentration (IC50) came out at 106 nM in assay [1] and 879 nM in assay [3]. Besides, the Ki was 10.7 nM and 36.1 nM in assay [2]; 1060 nM in assay [4].

In the case of `Cc1nnn2c1-c1ccc(-c3cnn(C)c3)cc1C(Nc1cccc(CO)c1)CC2` (stereo not drawn) [LB164, (3-((1-methyl-9-(1-methyl-1H-pyrazol-4-yl)-6,7-dihydro-5H-benzo[c][1,2,3]triazolo[1,5-a]azepin-7-yl)amino)phenyl)methanol], the IC50 in assay [1] worked out at 39.3 nM; in assay [3] it was 26 nM. Moreover, the Ki is 12.7 nM in assay [2] and 95.7 nM in assay [4].

Regarding `Cc1nnn2c1-c1ccc(C3=CCN(C(C)C)CC3)cc1C(Nc1ccc(Cl)cc1)CC2` (stereo not drawn) [LD24, N-(4-chlorophenyl)-9-(1-isopropyl-1,2,3,6-tetrahydropyridin-4-yl)-1-methyl-6,7-dihydro-5H-benzo[c][1,2,3]triazolo[1,5-a]azepin-7-amine 2,2,2-trifluoroacetate], the half-maximal inhibitory concentration (IC50) in assay [1] was 19 nM; in assay [3], 447 nM. In addition, the Ki in assay [2] was 21.6 nM; in assay [4], 293 nM.

On to `Cc1nnn2c1-c1ccc(C3=CCN(C4CCCC4)CC3)cc1C(Nc1cc(Cl)ccc1F)CC2` (stereo not drawn) [BH190, N-(5-chloro-2-fluorophenyl)-9-(1-cyclopentyl-1,2,3,6-tetrahydropyridin-4-yl)-1-methyl-6,7-dihydro-5H-benzo[c][1,2,3]triazolo[1,5-a]azepin-7-amine 2,2,2-trifluoroacetate], for which the half-inhibitory concentration (IC50) in assay [1] turned out to be 62.8 nM; in assay [3], 248 nM. The inhibition constant Ki in assay [2] is 12.9 nM and 27.9 nM; in assay [4], 1620 nM.

Regarding `CC(=O)N1CC=C(c2ccc3c(c2)C(Nc2cc(Cl)ccc2F)CCn2nnc(C)c2-3)CC1` (stereo not drawn) [BH192, 1-(4-(7-((5-chloro-2-fluorophenyl)amino)-1-methyl-6,7-dihydro-5H-benzo[c][1,2,3]triazolo[1,5-a]azepin-9-yl)-3,6-dihydropyridin-1 (2H)-yl)ethan-1-one], the IC50 amounted to 0.21 nM in assay [1] and 6.15 nM in assay [3]. Further, the Ki in assay [2] is 3.45 nM; in assay [4], 106 nM.

For `CNC(=O)Cc1ccccc1NC1CCn2nnc(C)c2-c2ccc(-c3cnn(C)c3)cc21` (stereo not drawn) [LC11, N-methyl-2-(2-((1-methyl-9-(1-methyl-1H-pyrazol-4-yl)-6,7-dihydro-5H-benzo[c][1,2,3]triazolo[1,5-a]azepin-7-yl)amino)phenyl)acetamide], the half-inhibitory concentration (IC50) in assay [1] stood at 15.4 nM; in assay [3], 25.2 nM. The “BRD4 BD2 Ki” value in assay [2] is “<Kd”. The Ki in assay [4] is 7.8 nM.

Consider `CNC(=O)Cc1cccc(NC2CCn3nnc(C)c3-c3ccc(-c4cnn(C)c4)cc32)c1` (stereo not drawn) [LC10, N-methyl-2-(3-((1-methyl-9-(1-methyl-1H-pyrazol-4-yl)-6,7-dihydro-5H-benzo[c][1,2,3]triazolo[1,5-a]azepin-7-yl)amino)phenyl)acetamide], for which the concentration for half-maximal inhibition (IC50) was found to be 12.8 nM in assay [1] and 104 nM in assay [3]. For the same compound, in assay [2], the “BRD4 BD2 Ki” value is on record as “<Kd”. For the same compound, the inhibition constant (Ki) in assay [4] is 69.3 nM.

As for `CCN1CC=C(c2ccc3c(c2)C(Nc2cccc(Cl)c2)CCn2nnc(C)c2-3)CC1` (stereo not drawn) [BH36, N-(3-chlorophenyl)-9-(1-ethyl-1,2,3,6-tetrahydropyridin-4-yl)-1-methyl-6,7-dihydro-5H-benzo[c][1,2,3]triazolo[1,5-a]azepin-7-amine 2,2,2-trifluoroacetate], the IC50 turned out to be 57.5 nM in assay [1] and 146 nM in assay [3]. Also, the Ki in assay [2] was 13.8 nM and 16 nM; in assay [4] it was 717 nM and 1400 nM.

Consider `CCN1CC=C(c2ccc3c(c2)C(Nc2ccc(Cl)cc2)CCn2nnc(C)c2-3)CC1` (stereo not drawn) [LD23, N-(4-chlorophenyl)-9-(1-ethyl-1,2,3,6-tetrahydropyridin-4-yl)-1-methyl-6,7-dihydro-5H-benzo[c][1,2,3]triazolo[1,5-a]azepin-7-amine 2,2,2-trifluoroacetate], for which the concentration for half-maximal inhibition (IC50) in assay [1] came to 7.32 nM; in assay [3] it was 443 nM. Also, the results for the Ki in assay [2] and in assay [4] were 41.5 nM and 334 nM, respectively.

For the compound `Cc1nnn2c1-c1ccc(-c3cnn(C)c3)cc1C(Nc1ccccc1CO)CC2` (stereo not drawn) [LB192, (2-((1-methyl-9-(1-methyl-1H-pyrazol-4-yl)-6,7-dihydro-5H-benzo[c][1,2,3]triazolo[1,5-a]azepin-7-yl)amino)phenyl)methanol], the figures for the half-maximal inhibitory concentration (IC50) in assay [1] and in assay [3] were less than 0.1 nM and less than 1 nM, respectively. Also, the Ki is 16.1 nM in assay [2] and 94.6 nM in assay [4].

Regarding `Cc1nnn2c1-c1ccc(C3=CCN(C(C)C)CC3)cc1[C@H](Nc1cccc(Cl)c1)CC2` [RE13 (R), (7R)—N-(3-chlorophenyl)-9-(1-isopropyl-1,2,3,6-tetrahydropyridin-4-yl)-1-methyl-6,7-dihydro-5H-benzo[c][1,2,3]triazolo[1,5-a]azepin-7-amine 2,2,2-trifluoroacetate], the half-inhibitory concentration (IC50) in assay [1] is 126 nM; in assay [3], 546 nM. Also, the values for the Ki in assay [2] and in assay [4] were 14.8 nM and 1420 nM, respectively.

Consider `Cc1nnn2c1-c1ccc(C3=CCN(C4CCC4)CC3)cc1C(Nc1cccc(Cl)c1)CC2` (stereo not drawn) [BH159, N-(3-chlorophenyl)-9-(1-cyclobutyl-1,2,3,6-tetrahydropyridin-4-yl)-1-methyl-6,7-dihydro-5H-benzo[c][1,2,3]triazolo[1,5-a]azepin-7-amine 2,2,2-trifluoroacetate], for which the IC50 in assay [1] worked out at 75.2 nM; in assay [3], 285 nM. Also, the inhibition constant (Ki) in assay [2] was 9.31 nM; in assay [4], 879 nM.

For `Cc1nnn2c1-c1ccc(C3=CCN(C4CCCCC4)CC3)cc1C(Nc1cccc(Cl)c1)CC2` (stereo not drawn) [BH104, N-(3-chlorophenyl)-9-(1-cyclohexyl-1,2,3,6-tetrahydropyridin-4-yl)-1-methyl-6,7-dihydro-5H-benzo[c][1,2,3]triazolo[1,5-a]azepin-7-amine 2,2,2-trifluoroacetate], the 50% inhibitory concentration (IC50) amounted to 1.32 nM in assay [1] and 119 nM in assay [3]. For the same compound, the results for the Ki in assay [2] and in assay [4] were 13.4 nM and 710 nM, respectively.
